From article PMC11383786, “Parallel evolution of methyltransferases leads to vobasine biosynthesis in Tabernaemontana elegans and Catharanthus roseus” (Frontiers in Plant Science, 2024)

Test system: T1, TePeNMT (TeMT1)
T1 construct: N-terminal His-tag, codon optimized synthetic gene in pET30a(+) NotI/XhoI, E. coli BL21(DE3), Ni-NTA purified; no chloroplast transit peptide predicted
Assay: Michaelis-Menten kinetics, LC-MS/MS detection of product vobasine
Type: biochemical, Tabernaemontana elegans
Conditions: 50 μM S-adenosylmethionine (saturating), 20 mM Tris pH 7.5, 30 °C, 5 min
From the text: Michaelis-Menten kinetics, LC-MS/MS detection of product vobasine on TePeNMT (TeMT1)

Km: 1.91 µM
Structure (SMILES): C/C=C1/CN[C@H]2Cc3c([nH]c4ccccc34)C(=O)C[C@@H]1[C@@H]2C(=O)OC [perivine]
